Calls of active or inactive are those of the source. No cut-off for these calls is given here.
How the values were obtained:
[1] = Binding affinity to 5'-Biotinylated pre-let-7f-2-loop-mt RNA (unknown origin) by SPR analysis
[2] = Binding affinity to 5'-Biotinylated pre-let-7f-2-loop-mt RNA (unknown origin) at 25 uM by SPR analysis
[3] = Binding affinity to R1-RNA internal loop mutant1 (unknown origin) by SPR analysis
[4] = Binding affinity to R1-RNA (unknown origin) by SPR analysis
[5] = Binding affinity to R1-RNA internal loop mutant4 (unknown origin) by SPR analysis
[6] = Binding affinity to R1-RNA internal loop mutant3 (unknown origin) by SPR analysis
[7] = Binding affinity to R1-RNA internal loop (unknown origin) by SPR analysis
[8] = Binding affinity to R1-RNA internal loop mutant2 (unknown origin) by SPR analysis
[9] = Binding affinity to 5'-Biotinylated pre-let-7f-2 RNA (unknown origin) by SPR analysis
[10] = Binding affinity to R1-RNA hairpin loop (unknown origin) by SPR analysis
[11] = Binding affinity to R2-RNA (unknown origin) by SPR analysis

In the case of `CC(C)NC(=O)c1ccncc1NC(=O)Nc1nn(C)c2nc(Cl)ncc12`, the Kd [1] is reported as 17.8 µM and the Activity [2] is reported as “Active”.
In the case of `CC(C)NC(=O)c1ccncc1NC(=O)Nc1nn(C)c2nc(N3CCCC3)ncc12`, the Activity [1] is reported as “inactive”.
For `CC(C)NC(=O)c1ccncc1NC(=O)Nc1nn(C)c2nc(N3CCC(CN(C)C)C3)ncc12` (configuration not stated), the Activity [2] was “Active”.
For `Cn1nc(NC(=O)Nc2cnccc2C(=O)N[C@@H](CO)CCCCN)c2cnc(N3CC(F)(F)C(F)(F)C3)nc21`, the Activity [3] was “inactive”, the Activity [4] was “Active” and the Activity [5] was “inactive”. The Activity [6] was “inactive”, the Activity [1] was “Active” and the Activity [7] was “Active”. The Activity [2] was “Active”, the Activity [8] was “inactive” and the Activity [9] was “inactive”. The Activity [10] was “inactive” and the Activity [11] was “inactive”.
With `CC(C)NC(=O)c1ccncc1NC(=O)Nc1nn(C)c2nc(N3CCC(N(C)C)C3)ncc12` (configuration not stated) the Activity [2] was “Active”.
In the case of `COCC1CCN(c2ncc3c(NC(=O)Nc4cnccc4C(=O)NC(C)C)nn(C)c3n2)C1` (configuration not stated), the Activity [1] is reported as “inactive”.
